Reference: patent publication US20130303539A1, “COMPOUNDS WITH TRPV4 ACTIVITY, COMPOSITIONS AND ASSOCIATED METHODS THEREOF” (priority 2012, published 2013)

Experiments:
[1] = tested on: retinal ganglion cells; assay: Hypotonic swelling-induced calcium influx in retinal ganglion cells (Fura-2); assay type: cell-based
Text: Cells were labeled with fluorescent calcium indicator dye Fura-2 and exposed to hypotonic solutions in which extracellular sodium was replaced by the osmotically inert substance mannitol, as described in […] et al. (J. Neurosci. 2011 May 11; 31(19):7089-101; PMID 21562271).

[2] = tested on: MB model of glaucoma; assay: IOP time course after a single eye drop in the MB model of glaucoma; assay type: in vivo, mouse; details: single dose eye drop
Description: Specifically, microbeads (MBs) were injected into the anterior chamber of a mouse eye as described in Example 2 with PBS-injected eyes used as controls. Compound 1 (10 mg/kg body weight) (or PBS vehicle) was injected intraperitoneally (IP). […] IOP was measured in mice between 10:00 AM and 1:00 PM with the TonoLab rebound tonometer (Colonial Medical Supply, Franconia, NH/Tyolat, Helsinki, Finland). Mice were sedated with IP injection of Avertin with final amount calculated by weight (e.g., 0.5 ml for 21-24 g animals). Animals were placed on a jack stand platform and the tonolab was clamped on a ring stand and centered onto the mid-cornea. During measurements animal were neither restrained nor touched. Each eye was measured twenty consecutive times, the highest and lowest values were discarded and the values were averaged.
FIG. 9 illustrates the short-term effects of a single dose of Compound 1 (eye drop) in the MB model of glaucoma. IOP was measured as described in Example 3 at the indicated time points after receiving a drop of Compound 1. Compound 1 reduced IOP beginning at 1 hour after dosing and continued through 6 hours after dosing.
FIG. 10 illustrates a time course of Compounds 1, 2, 5 and Compound 2-HCl as well as a positive control compound, timolol, with regard to inhibition of IOP. The experiment was conducted as described in Example 9. Each of the TRPV4 antagonists reduced IOP with a similar time course. Specifically, Compounds 1, 2, 5 and Compound 2-HCl reduced IOP for at least 6 hours after dosing.
FIG. 11 illustrates a time course of Compound 2-HCl activity. The experiment was conducted as described in Example 9. […] 2
FIG. 12 illustrates a comparison of the time course of Compound 2-HCl and Compound 5. The experiment was conducted as described in Example 9.

[3] = tested on: retinal ganglion cells; assay: RGC density in retinal wholemounts of the MB mouse model; assay type: in vivo
Description: FIG. 2 confirms that the mouse model for glaucoma causes RGC degeneration. Specifically, microbeads (MBs) were injected into the anterior chamber of a mouse eye. The MBs increase intraocular IOP above 15 mm Hg by blocking outflow of the aqueous humor within the anterior chamber of the eye. MBs were reinjected as needed to maintain a high IOP, typically one injection every two weeks. Contralateral eyes were injected intraocularly with the vehicle PBS (phosphate buffered saline) as controls. […] IOP levels were measured at least twice weekly before and after intraocular injections. After injections, mice recovered for 48 hours before IOP measurements resumed. Following 4 or 8 weeks of IOP elevation, mice were intracardially perfused with 4% paraformaldehyde in 1×PBS to fix the retinas. Retinas were then removed and processed for immunohistochemistry (IHC). Whole retinas were rinsed with 1×PBS three times at room temperature then incubated in blocking buffer (1×PBS+1% BSA). […] The density of RGCs was imaged with a confocal microscope (Zeiss LSM 510) and quantified by counting NeuN-, CFP- and/or Tuj-1—labeled somata in the RGC layer of the retinal wholemount preparation. […]
RGD density was quantified in retinas isolated from TuJ-1^+ mice and transgenic Thy1-CRP^+ transgenic mice that had been injected with either MBs or vehicle (PBS) then dosed with either compound 1 or vehicle (PBS). […] TuJ-1 was quantified by immunohistochemistry using a Tuj-1-specific antibody conjugated to a fluorescent Alexa 488 or Alexa 594 secondary antibody. […] For fluorescence immunocytochemistry, retinal wholemounts were washed in PBS, then placed for 30 min. to 1 hour in blocking solution (10 ml PBS, 30 μL Triton-X 100, 100 mg bovine serum albumin, 100 μL 10% w/v Na azide solution) in OCT (Ted Pella, Redding, Pa.). […]

[4] = biological target: T1, TRPV4 (Mus musculus, UniProt Q9EPK8); assay: AGB cation influx into retinal cells (anti-AGB antibody); assay type: cell-based; design: these two cell types express TRPV4 channels in the mouse retina; from tissue; host or cells: mouse retina; details: mouse retina
Description: FIG. 16 illustrates the effect of the TRPV4 agonist GSK on cation influx into mouse retinal cells of the mouse retina. The influx was determined using the anti-AGB antibody, as described by Marc RE (J Comp Neurol 407(1): 47-64, 1999). AGB is a membrane permeant cation that can flow through most known cation channels. Using an anti-AGB antibody, it can be determined where the cation flux occurs and, therefore, which cells are activated.

[5] = biological target: T1, TRPV4; assay: TRPV4 agonist GSK-evoked [Ca++]i in retinal Müller glial cells; assay type: cell-based; design: endogenous in cells; host or cells: retinal Müller glial cells

T1 sequence (Q9EPK8 whole entry): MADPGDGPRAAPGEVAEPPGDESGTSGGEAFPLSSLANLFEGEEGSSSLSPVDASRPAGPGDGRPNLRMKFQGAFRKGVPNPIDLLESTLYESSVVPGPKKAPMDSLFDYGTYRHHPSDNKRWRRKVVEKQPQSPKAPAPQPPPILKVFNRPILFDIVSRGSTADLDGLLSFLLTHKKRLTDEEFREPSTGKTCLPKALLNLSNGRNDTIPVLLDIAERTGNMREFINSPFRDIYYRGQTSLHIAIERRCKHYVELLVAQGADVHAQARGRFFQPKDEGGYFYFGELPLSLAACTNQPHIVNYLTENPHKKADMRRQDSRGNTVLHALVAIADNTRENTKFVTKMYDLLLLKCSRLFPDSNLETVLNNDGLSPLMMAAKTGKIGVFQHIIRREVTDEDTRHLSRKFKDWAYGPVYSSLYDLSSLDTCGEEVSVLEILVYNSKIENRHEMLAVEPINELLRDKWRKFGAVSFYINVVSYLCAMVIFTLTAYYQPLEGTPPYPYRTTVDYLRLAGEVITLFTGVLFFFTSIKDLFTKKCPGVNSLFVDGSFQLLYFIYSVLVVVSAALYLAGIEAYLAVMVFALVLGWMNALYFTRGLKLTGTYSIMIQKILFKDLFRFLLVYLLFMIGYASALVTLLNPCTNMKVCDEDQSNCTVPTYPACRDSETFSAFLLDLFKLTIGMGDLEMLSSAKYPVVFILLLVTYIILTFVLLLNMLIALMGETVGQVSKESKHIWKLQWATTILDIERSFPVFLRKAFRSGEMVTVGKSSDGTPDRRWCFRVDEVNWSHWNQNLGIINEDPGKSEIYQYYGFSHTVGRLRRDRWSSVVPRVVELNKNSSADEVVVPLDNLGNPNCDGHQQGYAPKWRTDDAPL

## Cc1c(C(=O)Nc2cccc(C(F)(F)F)c2)cc(-c2ccccc2)n1CCCN1CCOCC1 [Compound 1, N-(3-(trifluoromethyl)phenyl)-2-methyl-1-(3-morpholinopropyl)-5-phenyl-1H-pyrrole-3-carboxamide]
[1]; 140 mOsm saline
  effect of cell swelling on intracellular calcium levels in ganglion cells: blocked
[1]; hypotonic solutions
  pressure-dependent influx of calcium in RGCs (FIG. 17C): prevents the pressure-dependent influx of calcium in RGCs
[2]
  onset of IOP reduction after dosing: 1 h
[3]; MB- or PBS-injected eyes, IP dosing
  TuJ-1+ cells in the alpha, beta and omega regions: rescues RGCs across all regions of the retina
[3]; Thy1-CFP transgenic mice, MB- or PBS-injected eyes, IP dosing
  CFP+ cells in the alpha, beta and omega regions: rescues RGCs across all regions of the retina
[3]; after 8 weeks of increased IOP, MB-injected mice
  density of RGCs (TuJ-1+ cells and Thy1:CFP+ cells): RGC loss was rescued
[4]
  antagonism of the effect of GSK on AGB cation influx: strongly antagonized
[5]
  block of GSK-evoked [Ca++]i increase: this effect is blocked
  reversibility of the effect on glial calcium levels: reversible
  washout by superfusion with control saline: 10 min
